Tests used:
Test in all cases: relative viability (nuclei count vs DMSO), 5 days (fraction); higher = more cells survive
XMD8-85 + OSI-027 = compound: CN1CCN(CC1)C2=CC(=C(C=C2)NC3=NC=C4C(=N3)N(C5=CC=CC=C5C(=O)N4C)C)OC [XMD8-85] + COc1cccc2cc(-c3nc([C@H]4CC[C@H](C(=O)O)CC4)n4ncnc(N)c34)[nH]c12 [OSI-027] (partner 0.5 µM)
How it was run: (§1)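 Lung cancer cell lines in 1536-well plates were dosed by pin tool the day after seeding, either with one drug alone or with a fixed anchor-drug dose plus five library-drug doses (not always all listed) in √10 steps. After 5 days, cells were fixed and their nuclei stained in one step (final 0.05% Triton X-100, 1% formaldehyde, 1 ug/ml Hoechst), then counted on 4× images. Relative viability is the nuclei count in treated wells divided by that in vehicle wells. Values are medians of duplicate plates.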

4EGI-1 + Pemetrexed = compound: O=C(O)C(Cc1ccccc1[N+](=O)[O-])=NNc1nc(-c2ccc(Cl)c(Cl)c2)cs1 (mixture of isomers) [4EGI-1] + Nc1nc2[nH]cc(CCc3ccc(C(=O)N[C@@H](CCC(=O)O)C(=O)O)cc3)c2c(=O)[nH]1 [Pemetrexed] (partner 0.2 µM)
How it was run: as §1

XMD8-85 = compound: CN1CCN(CC1)C2=CC(=C(C=C2)NC3=NC=C4C(=N3)N(C5=CC=CC=C5C(=O)N4C)C)OC [XMD8-85]
How it was run: (§2)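 Lung cancer cell lines were seeded into 1536-well plates, kept overnight at 37 °C and pinned with five library-drug doses (not always all listed) spaced by √10. After 5 days, nuclei were Hoechst-stained, imaged at 4× and counted with MetaXpress. Viability is treated-well nuclei over vehicle-well nuclei, taken as a median across plates. Plates needed control CV below 25% and at least one doubling.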

4EGI-1 = compound: O=C(O)C(Cc1ccccc1[N+](=O)[O-])=NNc1nc(-c2ccc(Cl)c(Cl)c2)cs1 (mixture of isomers) [4EGI-1]
How it was run: as §2

Cell Line | relative viability (XMD8-85 + OSI-027; first compound 0.08 µM) | relative viability (XMD8-85 + OSI-027; first compound 0.253 µM) | relative viability (XMD8-85 + OSI-027; first compound 0.8 µM) | relative viability (XMD8-85 + OSI-027; first compound 2.53 µM) | relative viability (XMD8-85 + OSI-027; first compound 8 µM) | relative viability (4EGI-1 + Pemetrexed; first compound 0.5 µM) | relative viability (4EGI-1 + Pemetrexed; first compound 1.581 µM) | relative viability (4EGI-1 + Pemetrexed; first compound 5 µM) | relative viability (4EGI-1 + Pemetrexed; first compound 15.81 µM) | relative viability (4EGI-1 + Pemetrexed; first compound 50 µM) | relative viability (XMD8-85; 0.08 µM) | relative viability (XMD8-85; 0.253 µM) | relative viability (XMD8-85; 0.8 µM) | relative viability (XMD8-85; 2.53 µM) | relative viability (XMD8-85; 8 µM) | relative viability (4EGI-1; 0.5 µM) | relative viability (4EGI-1; 1.581 µM) | relative viability (4EGI-1; 5 µM) | relative viability (4EGI-1; 15.81 µM) | relative viability (4EGI-1; 50 µM)
NCI-H441 | 0.522 | 0.65 | 0.654 | 0.699 | 0.68 | 0.257 | 0.249 | 0.276 | 0.229 | 0.184 | 1.09 | 0.92 | 1.2 | 1.29 | 0.801 | 1.22 | 0.868 | 1.13 | 0.791 | 0.307
NCI-H1666 | 0.816 | 0.876 | 0.893 | 0.907 | 0.679 | 0.898 | 0.889 | 0.891 | 0.711 | 0.641 | 0.965 | 0.963 | 0.919 | 0.971 | 0.998 | 1.05 | 0.942 | 1.09 | 0.781 | 0.436
NCI-H2023 | 0.314 | 0.434 | 0.402 | 0.37 | 0.248 | 0.263 | – | 0.223 | 0.164 | 0.101 | 0.837 | 1.02 | 0.99 | 1 | 0.559 | 1.27 | – | 1.1 | 0.376 | 0.129
NCI-H322M | 0.506 | – | 0.571 | 0.504 | 0.37 | 0.576 | – | 0.643 | 0.618 | 0.377 | 0.906 | 0.937 | 0.939 | 0.97 | 0.621 | 0.94 | – | 1.05 | 0.75 | 0.5
NCI-H838 | 0.386 | 0.463 | 0.343 | 0.346 | 0.339 | 0.247 | 0.255 | 0.244 | 0.225 | 0.174 | 0.951 | 1.02 | 0.997 | 0.937 | 0.754 | 1.03 | – | 1.02 | 0.912 | 0.342
NCI-H522 | 0.659 | 0.747 | 0.66 | 0.828 | 0.596 | 0.948 | 0.981 | 1.07 | 1.06 | 0.718 | 0.94 | 1.11 | 0.947 | 1.09 | 0.677 | 1.01 | 0.878 | 0.99 | 0.922 | 0.69
ChaGo-K-1 | 0.555 | 0.532 | 0.599 | 0.605 | 0.422 | 0.26 | 0.266 | 0.269 | 0.267 | 0.265 | 0.953 | 0.969 | 0.917 | 1.06 | 0.959 | 0.976 | 0.762 | 1.03 | 0.861 | 0.616

Source: the supplement of paper PMC10307832
